Columns and labels:
[1] = target: Cannabinoid receptor 1 (Rattus norvegicus, UniProt P20272); test: Displacement of [3H]CP-55940 from CB1 receptor in Sprague-Dawley rat cerebellar membrane; design: species or system Cerebellum
[2] = target: Cannabinoid receptor 2 (Homo sapiens, UniProt P34972); test: Displacement of [3H]WIN-55212-2 from human CB2 receptor expressed in CHO cells; type: cell-based
Chain of Cannabinoid receptor 2 (P34972 whole entry): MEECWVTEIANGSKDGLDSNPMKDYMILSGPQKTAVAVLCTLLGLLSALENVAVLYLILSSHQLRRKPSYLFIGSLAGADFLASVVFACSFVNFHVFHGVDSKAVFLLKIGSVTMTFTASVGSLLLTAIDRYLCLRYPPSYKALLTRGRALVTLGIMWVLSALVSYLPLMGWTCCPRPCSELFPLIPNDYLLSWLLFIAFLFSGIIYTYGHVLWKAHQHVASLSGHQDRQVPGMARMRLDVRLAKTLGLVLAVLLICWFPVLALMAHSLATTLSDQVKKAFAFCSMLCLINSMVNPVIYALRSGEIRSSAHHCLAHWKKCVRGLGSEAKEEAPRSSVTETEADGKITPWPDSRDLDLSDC

Chain of Cannabinoid receptor 1 (P20272 whole entry): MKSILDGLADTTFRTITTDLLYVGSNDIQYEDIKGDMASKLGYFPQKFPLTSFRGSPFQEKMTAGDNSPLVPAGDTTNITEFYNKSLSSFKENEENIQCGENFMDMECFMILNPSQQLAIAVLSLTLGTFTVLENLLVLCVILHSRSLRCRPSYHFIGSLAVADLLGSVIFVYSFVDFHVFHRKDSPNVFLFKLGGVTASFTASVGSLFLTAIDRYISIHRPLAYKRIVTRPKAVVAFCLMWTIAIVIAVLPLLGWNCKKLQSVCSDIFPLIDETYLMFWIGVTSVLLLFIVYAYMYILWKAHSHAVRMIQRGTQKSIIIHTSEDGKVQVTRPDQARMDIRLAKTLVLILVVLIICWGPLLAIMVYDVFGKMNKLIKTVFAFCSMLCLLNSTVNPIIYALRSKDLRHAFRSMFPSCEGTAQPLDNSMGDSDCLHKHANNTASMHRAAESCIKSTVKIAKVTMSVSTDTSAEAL

Row | SMILES | IC50 [1] [nM] | IC50 [2] [nM]
1 | Cc1c(-c2nnc(C3(c4ccc(Cl)cc4)CC3)o2)nc(-c2ccc(Cl)cc2Cl)n1-c1ccc(Cl)cc1 | 15.2 | 
2 | Cc1c(-c2nnc(C(C)(C)C)o2)nc(-c2ccccc2Cl)n1-c1ccc(Cl)cc1 | 5.29 | 
3 | Cc1c(-c2nnc(C(C)(C)C)s2)nc(-c2ccccc2Cl)n1-c1ccc(Cl)cc1 | 12.7 | 
4 | CCc1c(-c2nnc(C(C)(C)C)o2)nc(-c2ccccc2Cl)n1-c1ccc(Cl)cc1 | 21.3 | 
5 | CCc1c(-c2nnc(C3(c4ccc(Cl)cc4Cl)CC3)o2)nc(-c2ccc(Cl)cc2Cl)n1-c1ccc(Br)cc1 |  | > 10000
6 | Cc1c(-c2nnc(CC(C)C)o2)nc(-c2ccc(Cl)cc2Cl)n1-c1ccc(Cl)cc1 | 39.4 | 
7 | Cc1c(-c2nnc(CC(C)C)s2)nc(-c2ccc(Cl)cc2Cl)n1-c1ccc(Cl)cc1 | 28.1 | 
8 | CCc1c(-c2nnc(C3(c4ccc(C)cc4)CC3)o2)nc(-c2ccc(Cl)cc2Cl)n1-c1ccc(Br)cc1 |  | > 10000
9 | Cc1c(-c2nnc(C3(C(F)(F)F)CC3)o2)nc(-c2ccc(Cl)cc2Cl)n1-c1ccc(Cl)cc1 | 55.1 | 
10 | Cc1c(-c2nnc(C3(c4ccc(Cl)cc4)CC3)s2)nc(-c2ccc(Cl)cc2Cl)n1-c1ccc(Cl)cc1 | 9.41 | 
11 | Cc1c(-c2nnc(C3(C(F)(F)F)CCC3)o2)nc(-c2ccc(Cl)cc2Cl)n1-c1ccc(Cl)cc1 | 16.7 | 
12 | Cc1c(-c2nnc(C3(C(F)(F)F)CCC3)s2)nc(-c2ccc(Cl)cc2Cl)n1-c1ccc(Cl)cc1 | 9.66 | 

Next, values leading:

Row | IC50 [1] [nM] | IC50 [2] [nM] | SMILES
13 |  | > 10000 | CCc1c(-c2nnc(C3(c4ccc(Cl)cc4)CCC3)o2)nc(-c2ccc(Cl)cc2Cl)n1-c1ccc(Br)cc1
14 |  | > 10000 | CCc1c(-c2nnc(C3(c4ccc(C)cc4)CC3)s2)nc(-c2ccc(Cl)cc2Cl)n1-c1ccc(Br)cc1
15 |  | > 10000 | CCc1c(-c2nnc(C3(c4ccc(Cl)cc4)CCC3)s2)nc(-c2ccc(Cl)cc2Cl)n1-c1ccc(Br)cc1
16 |  | > 10000 | CCc1c(-c2nnc(C3(c4ccc(Cl)cc4)CC3)s2)nc(-c2ccc(Cl)cc2Cl)n1-c1ccc(Br)cc1
17 |  | > 10000 | CCc1c(-c2nnc(C3(c4ccccc4)CC3)s2)nc(-c2ccc(Cl)cc2Cl)n1-c1ccc(Br)cc1
18 | 33.5 |  | Cc1c(-c2nnc(C3(C(F)(F)F)CC3)s2)nc(-c2ccc(Cl)cc2Cl)n1-c1ccc(Cl)cc1
19 |  | > 10000 | CCc1c(-c2nnc(C3(c4ccc(OC)cc4)CC3)s2)nc(-c2ccc(Cl)cc2Cl)n1-c1ccc(Br)cc1
20 |  | > 10000 | CCc1c(-c2nnc(C3(c4ccc(Cl)cc4Cl)CC3)s2)nc(-c2ccc(Cl)cc2Cl)n1-c1ccc(Br)cc1

Reference: ChEMBL document CHEMBL1139276, “Diarylimidazolyl oxadiazole and thiadiazole derivatives as cannabinoid CB1 receptor antagonists” (Bioorg Med Chem Lett, 2009)
